Results: BindingDB's records for doi:10.1016/j.str.2004.01.005 (University of Dundee, 2004)

How the values were obtained:
Experiment in all cases: PDK1 Kinase Activity Assay
Details in all cases: pH 7.5; 30 °C
[1] = target: T1, 3-phosphoinositide-dependent protein kinase 1 [51-359] (Human, UniProt O15530)
T1 construct: 51-359
T1 sequence (O15530 whole entry): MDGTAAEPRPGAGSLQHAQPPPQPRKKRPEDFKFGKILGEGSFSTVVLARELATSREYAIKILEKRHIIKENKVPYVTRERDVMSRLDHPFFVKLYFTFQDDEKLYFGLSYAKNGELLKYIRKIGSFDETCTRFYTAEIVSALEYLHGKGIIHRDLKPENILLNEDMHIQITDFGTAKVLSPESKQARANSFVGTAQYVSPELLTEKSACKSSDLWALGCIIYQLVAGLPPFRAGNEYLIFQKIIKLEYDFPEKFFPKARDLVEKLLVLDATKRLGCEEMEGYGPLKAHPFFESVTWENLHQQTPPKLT

[2] = target: T2, 3-phosphoinositide-dependent protein kinase 1 [51-359,E166D] (Homo sapiens, UniProt O15530, E166D)
T2 construct: 51-359

[3] = target: T3, 3-phosphoinositide-dependent protein kinase 1 [51-359,L159M] (Homo sapiens, UniProt O15530, L159M)
T3 construct: 51-359

[4] = target: T4, 3-phosphoinositide-dependent protein kinase 1 [51-359,V143T] (Homo sapiens, UniProt O15530, V143T)
T4 construct: 51-359

[5] = target: T5, 3-phosphoinositide-dependent protein kinase 1 [51-359,V143T,T222A] (Homo sapiens, UniProt O15530, T222A/V143T)
T5 construct: 51-359

[6] = target: T6, 3-phosphoinositide-dependent protein kinase 1 [51-359,A162V] (Homo sapiens, UniProt O15530, A162V)
T6 construct: 51-359

[7] = target: T7, 3-phosphoinositide-dependent protein kinase 1 [51-359,T222A] (Homo sapiens, UniProt O15530, T222A)
T7 construct: 51-359
T7 sequence (O15530 51-359 T222A): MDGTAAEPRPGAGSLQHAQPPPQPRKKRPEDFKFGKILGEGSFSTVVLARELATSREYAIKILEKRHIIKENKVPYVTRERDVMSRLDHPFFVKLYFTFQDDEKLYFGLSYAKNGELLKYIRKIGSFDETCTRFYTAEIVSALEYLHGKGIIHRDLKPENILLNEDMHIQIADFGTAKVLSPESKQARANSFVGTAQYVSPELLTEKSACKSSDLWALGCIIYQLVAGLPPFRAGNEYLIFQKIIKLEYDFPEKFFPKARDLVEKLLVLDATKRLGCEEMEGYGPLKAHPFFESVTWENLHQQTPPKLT

T2 sequence (O15530 51-359 E166D): as the sequence (O15530 51-359 T222A) above, with E116D, A172T counted along it
T4 sequence (O15530 51-359 V143T): as the sequence (O15530 51-359 T222A) above, with V93T, A172T counted along it
T3 sequence (O15530 51-359 L159M): as the sequence (O15530 51-359 T222A) above, with L109M, A172T counted along it
T5 sequence (O15530 51-359 V143T/T222A): as the sequence (O15530 51-359 T222A) above, with V93T counted along it
T6 sequence (O15530 51-359 A162V): as the sequence (O15530 51-359 T222A) above, with A112V, A172T counted along it

| IC50 [1] | IC50 [2] | IC50 [3] | IC50 [4] | IC50 [5] | IC50 [6] | IC50 [7] | Structure (SMILES) |
| --- | --- | --- | --- | --- | --- | --- | --- |
| 1 µM | – | – | – | – | – | – | Cn1cc(C2=C(c3cn(CCCN)c4ccccc34)C(=O)NC2=O)c2ccccc21 [Ro 31-7549] |
| 9 µM | – | – | – | – | – | – | CN(C)CCCn1cc(C2=C(c3c[nH]c4ccccc34)C(=O)NC2=O)c2ccccc21 [2-[1-(3-dimethylaminopropyl)-indol-3-yl]-3-(indol-3-yl)maleimide] |
| 4 µM | 5.7 µM | 3 µM | 2500 nM | 2000 nM | 3.4 µM | 3.8 µM | NCCCn1cc(C2=C(c3c[nH]c4ccccc34)C(=O)NC2=O)c2ccccc21 [Bisindolyl deriv. 19] |
| 14 µM | – | – | – | – | – | – | CN1CCCC1CCn1cc(C2=C(c3c[nH]c4ccccc34)C(=O)NC2=O)c2ccccc21 (stereo not given) [3-(1H-indol-3-yl)-4-{1-[2-(1-methylpyrrolidin-2-yl)ethyl]-1H-indol-3-yl}-2,5-dihydro-1H-pyrrole-2,5-dione] |
